Measured values as given in patent EP4653437A2 (Innovo Therapeutics Inc., priority 2023, dated 2024).

Legend:
A549 cells = assay: Measurement of PGE2-increasing activity in A549 cells (IL-1β stimulated, PGE2 quantified in supernatant); format: cell-based; details: Homo sapiens, 24 h; concentration of 1 µM of each compound; IL-1β treated A549 cells; read-out: Increased PGE2 production in A549 cells
Summary of the method: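 A549 cells grown 24 h in F12K with 10% FBS, then switched to serum-free medium with or without IL-1β and compound (0.1% DMSO final). After 24 h at 37 °C, 5% CO2, supernatant PGE2 quantified by immunoassay.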

human 15-PGDH = target: T1, human 15-PGDH (Homo sapiens, UniProt P15428); assay: Evaluation of 15-PGDH inhibitory activity (fluorescence enzyme assay, NAD+/PGE2); format: biochemical; details: human 15-PGDH enzyme, fluorescence Vmax
T1 construct: purchased R&D System 5660-DH
T1 sequence (P15428 1-266): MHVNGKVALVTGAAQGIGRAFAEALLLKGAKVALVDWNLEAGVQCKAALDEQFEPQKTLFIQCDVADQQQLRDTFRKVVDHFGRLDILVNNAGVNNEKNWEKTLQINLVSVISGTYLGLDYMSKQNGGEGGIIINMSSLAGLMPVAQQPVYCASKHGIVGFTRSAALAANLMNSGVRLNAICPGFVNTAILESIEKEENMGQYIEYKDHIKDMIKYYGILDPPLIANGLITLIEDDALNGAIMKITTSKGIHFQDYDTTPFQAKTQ
Description: 15-PGDH inhibition activity of Example compounds was measured as follows. 6.7 ng of human 15-PGDH (R&D System# 5660-DH) enzyme (10 µL) was added to a black 96 well plate, 60 µL of buffer (50 mM Tris-HCl, pH 7.5, 0.01% Tween 20) was added, and 10 µL of 200 µM β-Nicotinamide adenine dinucleotide sodium salt (Sigma, Cat# N0632-5G) was added. 10 µL of (10x) compound solution in DMSO was added and reacted for 10 minutes at room temperature.

IC50 (human 15-PGDH) [nM]	Structure (SMILES)	fold induction at 1 µM (A549 cells)
≤ 100	O=C1NCc2ccc(-c3cccc4c(C(=O)N5CC6(CC(F)C6)C5)cnn34)cc21 [Example 411, 6-(3-(6-fluoro-2-azaspiro[3.3]heptane-2-carbonyl)pyrazolo[1,5-a]pyridin-7-yl)isoindolin-1-one]	> 1.5
≤ 100	N#Cc1ccc(-c2cccc3c(C(=O)N4CCCCC4)cnn23)cc1 [Example 15, 4-(3-(piperidine-1-carbonyl)pyrazolo[1,5-a]pyridin-7-yl)benzonitrile]	> 1.5
≤ 100	O=C(c1cnn2c(-c3cncc([N+](=O)[O-])c3)cccc12)N1CCCCC1 [Example 318, (7-(5-nitropyridin-3-yl)pyrazolo[1,5-a]pyridin-3-yl)(piperidin-1-yl)methanone]	> 1.5
≤ 100	O=C(c1cnn2c(-c3ccc(N4CCC5(CCC5)CC4)nc3)cccc12)N1CCCCC1 [Example 222, (7-(6-(7-azaspiro[3.5]nonan-7-yl)pyridin-3-yl)pyrazolo[1,5-a]pyridin-3-yl)(piperidin-1-yl)methanone]	> 1.5
≤ 100	O=C(c1cnn2c(-c3cc(F)cc(-c4ncon4)c3)cccc12)N1CCCCC1 [Example 341, (7-(3-fluoro-5-(1,2,4-oxadiazol-3-yl)phenyl)pyrazolo[1,5-a]pyridin-3-yl)(piperidin-1-yl)methanone]	> 1.5
≤ 100	N#CCNC(=O)c1ccc(-c2cccc3c(C(=O)N4CCCCC4)cnn23)cn1 [Example 86, N-(cyanomethyl)-5-(3-(piperidine-1-carbonyl)pyrazolo[1,5-a]pyridin-7-yl)picolinamide]	> 1.5
≤ 100	O=C(Nc1ccncc1)c1ccc(-c2cccc3c(C(=O)N4CCCCC4)cnn23)cn1 [Example 88, 5-(3-(piperidine-1-carbonyl)pyrazolo[1,5-a]pyridin-7-yl)-N-(pyridin-4-yl)picolinamide]	> 1.5
≤ 100	CNC(=O)c1ncc(-c2cccc3c(C(=O)N4CCCCC4)cnn23)cc1F [Example 250, 3-fluoro-N-methyl-5-[3-(piperidine-1-carbonyl)pyrazolo[1,5-a]pyridin-7-yl]pyridine-2-carboxamide]	> 1.5
≤ 100	O=C(c1ccc(-c2cccc3c(C(=O)N4CCCCC4)cnn23)cc1)N1CCC1 [Example 61, azetidin-1-yl(4-(3-(piperidine-1-carbonyl)pyrazolo[1,5-a]pyridin-7-yl)phenyl)methanone]	> 1.5
≤ 100	CC(C)N1Cc2ccc(-c3cccc4c(C(=O)N5CCCCC5)cnn34)cc2C1=O [Example 142, 2-isopropyl-6-(3-(piperidine-1-carbonyl)pyrazolo[1,5-a]pyridin-7-yl)isoindolin-1-one]	> 1.5
≤ 100	O=C(c1cnn2c(-c3ccc(N4CC5(CCC5)C4)nc3)cccc12)N1CCCCC1 [Example 220, (7-(6-(2-azaspiro[3.3]heptan-2-yl)pyridin-3-yl)pyrazolo[1,5-a]pyridin-3-yl)(piperidin-1-yl)methanone]	> 1.5
≤ 100	O=C(c1cnn2c(-c3ccc(Cl)nc3F)cccc12)N1CCCCC1 [Example 315, (7-(6-chloro-2-fluoropyridin-3-yl)pyrazolo[1,5-a]pyridin-3-yl)(piperidin-1-yl)methanone]	> 1.5
≤ 100	CC(C)N1CCN(C(=O)c2ccc(-c3cccc4c(C(=O)N5CCCCC5)cnn34)cc2)CC1 [Example 68, (4-isopropylpiperazin-1-yl)(4-(3-(piperidine-1-carbonyl)pyrazolo[1,5-a]pyridin-7-yl)phenyl)methanone]	> 1.5
≤ 100	Cn1nc2ccc(-c3cccc4c(C(=O)N5CCCCC5)cnn34)cn2c1=O [Example 246, 2-methyl-6-(3-(piperidine-1-carbonyl)pyrazolo[1,5-a]pyridin-7-yl)-[1,2,4]triazolo[4,3-a]pyridin-3(2H)-one]	> 1.5
≤ 100	N#Cc1ccc(-c2cccc3c(C(=O)N4CCC(F)CC4)cnn23)cc1 [Example 156, 4-(3-(4-fluoropiperidine-1-carbonyl)pyrazolo[1,5-a]pyridin-7-yl)benzonitrile]	> 1.5
≤ 100	O=C1NCc2ccc(-c3cccc4c(C(=O)N5CCCC(F)C5)cnn34)cc21 (centres unmarked) [Example 378, 6-(3-(3-fluoropiperidine-1-carbonyl)pyrazolo[1,5-a]pyridin-7-yl)isoindolin-1-one]	> 1.5
≤ 100	O=C1NCCc2ccc(Nc3cccc4c(C(=O)N5CCCCC5)cnn34)cc21 [Example 211, 7-[[3-(piperidine-1-carbonyl)pyrazolo[1,5-a]pyridin-7-yl]amino]-3,4-dihydro-2H-isoquinolin-1-one]	> 1.5
≤ 100	O=C(c1ccc(-c2cccc3c(C(=O)N4CCCCC4)cnn23)cc1)N1CCNCC1 [Example 66, piperazin-1-yl(4-(3-(piperidine-1-carbonyl)pyrazolo[1,5-a]pyridin-7-yl)phenyl)methanone]	> 1.5
≤ 100	O=C(c1cnn2c(-c3ccc(N4CCOCC4)nc3)cccc12)N1CCCCC1 [Example 108, (7-(6-morpholinopyridin-3-yl)pyrazolo[1,5-a]pyridin-3-yl)(piperidin-1-yl)methanone]	> 1.5
≤ 100	N#Cc1cccc(-c2cccc3c(C(=O)N4CCCCC4)cnn23)c1 [Example 6, 3-(3-(piperidine-1-carbonyl)pyrazolo[1,5-a]pyridin-7-yl)benzonitrile]	> 1.5
≤ 100	O=C(c1cnn2c(-c3ccc(-c4noc(C(F)(F)F)n4)cc3)cccc12)N1CCCCC1 [Example 361, 1-piperidyl-[7-[4-[5-(trifluoromethyl)-1,2,4-oxadiazol-3-yl]phenyl]pyrazolo[1,5-a]pyridin-3-yl]methanone]	> 1.5
≤ 100	Cc1nc(-c2cc(F)cc(-c3cccc4c(C(=O)N5CCCCC5)cnn34)c2)no1 [Example 322, (7-(3-fluoro-5-(5-methyl-1,2,4-oxadiazol-3-yl)phenyl)pyrazolo[1,5-a]pyridin-3-yl)(piperidin-1-yl)methanone]	> 1.5
≤ 100	COC(=O)c1ncc(-c2cccc3c(C(=O)N4CCCCC4)cnn23)cc1F [Example 244, methyl 3-fluoro-5-[3-(piperidine-1-carbonyl)pyrazolo[1,5-a]pyridin-7-yl]pyridine-2-carboxylate]	< 1.5
≤ 100	Nc1n[nH]c2cc(-c3cccc4c(C(=O)N5CCCCC5)cnn34)ccc12 [Example 309, [7-(3-amino-1H-indazol-6-yl)pyrazolo[1,5-a]pyridin-3-yl]-(1-piperidyl)methanone]	> 1.5

Structure (SMILES)	IC50 (human 15-PGDH) [nM]	fold induction at 1 µM (A549 cells)
Nc1cnn(-c2cc(-c3cccc4c(C(=O)N5CCCCC5)cnn34)cc(Br)n2)c1 [Example 356, (7-(2-(4-amino-1H-pyrazol-1-yl)-6-bromopyridin-4-yl)pyrazolo|[1,5-a]pyridin-3-yl)(piperidin-1-yl)methanone]	≤ 100	> 1.5
